Here are results for 16 compounds from patent US9212147B2, “Dihydroxy aromatic heterocyclic compound” (TAKEDA PHARMACEUTICAL COMPANY LIMITED, priority 2011, dated 2015).

Structures are written as SMILES.

For assay [1], the target named is HEK293 cells that stably express human DAAO (Homo sapiens (Human), UniProt P14920). The assay is described as follows: Inhibitory activity test at cellular level using DAAO-expressing cells. Format: cell-based. The conditions noted are these: D-alanine substrate. The method, then:
HEK293 cells that stably express human DAAO were suspended in Cellbanker solution at 5×10^6 cells/ml and cryopreserved at −80° C. At the time of measurement, the cells were centrifuged at 1000 rpm for one min and the Cellbanker solution was removed. […] A 4% DMSO buffer solution (50 mM sodium phosphate [pH 7.5], 0.02% CHAPS) of the test compound (4 μL) was added to a 384-well black, low volume plate, the cell suspension (4 μL) was added, and the mixture was incubated at room temperature for 15 min.
Reverse transcription was performed on human normal kidney tissue-derived RNA (Clontech Corp.) using reverse transcriptase (SuperScriptIII, Life Technologies Corporation) and oligo (dT) primer (Life Technologies Corporation) according to the protocol of the kit (Life Technologies Corporation) and cDNA was synthesized. Then, using human DAAO_HindIII_F represented by Sequence No. 1 and human DAAO_BamHI_R represented by Sequence No. 2, a PCR reaction (35 cycles of 98° C. for 15 sec, 55° C. for 15 sec and 68° C. for 1 min 30 sec) was performed using DNA polymerase (PrimeSTAR, TAKARA BIO INC.) and cDNA obtained as above as a template. […] The PCR product was cloned in a cloning vector (pCR2.1-TOPO Cloning Kit, Life Technologies Corporation). The sequence of the insert was determined by the dideoxy sequence method (BigDye Terminator v3.1 Cycle Sequencing Kit; Life Technologies Corporation).
To express the ORF full length of DAAO as a protein, the above-mentioned vector was subjected to an enzyme reaction with restriction enzymes HindIII and BamHI at 37° C. for 3 hr, and the restriction enzyme-treated DNA fragment was purified. The DNA fragment containing the ORF was cloned to HindIII and BamHI sites present in the multiple cloning site of the expression vector (pcDNA3.1(+): Invitrogen Co.), whereby an expression plasmid (hDAAO/pcDNA3.1) was constructed.
Then, HEK293 cells were transfected to obtain the forced expression cell line. The cells were spread on a collagen-coated 24-well plate (Corning) to contain 1.0×10^5 cells per well on the day before transfection and, using Lipofectamine 2000 (Invitrogen) and hDAAO/pcDNA3.1, transfected according to the protocol. Thereafter, subculture was performed several times using 800 μg/mL geneticin, whereby a drug resistant cell line was obtained.
To confirm acquisition of the human DAAO expression cell line, the cells were spread on a collagen-coated 384-well black, clear bottom plate to 2.5×10^4 per well, and the cells were cultured at 37° C. in the presence of 5% CO2 for 24 hr. After culturing, the culture supernatant was removed, and a solution containing flavin adenine dinucleotide was added to Hanks-20 mM Hepes (pH 7.4) buffer to 5.5 μg/mL, added by 20 μL per well to the wells from which the supernatant had been removed, and the mixture was allowed to react at 37° C. in the presence of 5% CO2 for 1 hr.

Assay [2] concerns the target recombinant human DAAO protein (Homo sapiens (Human), UniProt P14920). The assay is described as follows: DAAO inhibitory activity test (H2O2 production, Amplex red/HRP fluorescence). It counts as biochemical. The settings on record: recombinant human DAAO 15 nM, D-alanine substrate, FAD, pH 7.5. On the procedure: The DAAO inhibitory activity was measured by assaying the amount of hydrogen peroxide (H2O2) produced by reacting DAAO protein with flavin adenine dinucleotide (FAD) and D-alanine. The amount of H2O2 was determined by measuring the fluorescence generated on conversion of Amplex red (manufactured by Invitrogen Co.) into resorufin by the reaction of H2O2 with horseradish peroxidase (HRP).
Escherichia coli strain BL21(DE3) (manufactured by Novagen) was transformed with the constructed human DAAO expression vector, inoculated into LB culture medium containing kanamycin at a final concentration of 20 μg/mL, and shake-cultured at 37° C. overnight. The multiplied transformant was inoculated into Terrific Broth containing kanamycin at a final concentration of 20 μg/mL, and shake-cultured at 37° C. until it reached OD600=3.0. Thereafter, the culture was cooled to 30° C., and expression was induced with 1 mM IPTG. After 20 hours, bacterial pellets were recovered by centrifugation.
The bacterial pellets recovered as above were suspended in a lysis buffer (17 mM sodium pyrophosphate buffer pH 8.3, 100 μM FAD, 1 mM sodium benzoate, 1 mM PMSF, 14 mM β-mercaptoethanol, 0.2 mg/mL lysozyme) and the bacteria were fractured by sonication. The sonicated liquid was centrifuged and the supernatant was recovered. To remove the nucleic acid, to this supernatant were sequentially added NaCl (final concentration 0.5M) and 0.05% ethyleneimine (polymer) and, after thorough mixing, the supernatant was recovered by centrifugation. The supernatant was heat treated at 55° C. for 15 min, and the supernatant was recovered by centrifugation. To this supernatant was added 40% saturated ammonium sulfate and, after thorough mixing, the salt precipitate was recovered by centrifugation. The obtained salt precipitate was redissolved in buffer A (50 mM potassium phosphate buffer pH 7.4, 10% glycerol, 200 μM sodium benzoate, 10 μM FAD, 20% saturated ammonium sulfate), and filtered through a 0.22 μm filter (manufactured by Millipore). The obtained filtrate was applied to a hydrophobic interaction column Butyl-S Sepharose 6 Fast Flow (manufactured by GE Healthcare Life Sciences) and eluted with buffer B (10 mM Tris buffer solution pH 8.0, 200 μM sodium benzoate, 10% glycerol, 10 μM FAD). The eluent was applied to an anion-exchange column, Q Sepharose Fast Flow (manufactured by GE Healthcare Life Sciences) and eluted using an NaCl concentration gradient. The eluate was replaced with buffer B (sic) using Amicon Ultra-15 10 kDa (manufactured by Millipore), and thereafter applied to an anion-exchange column, RESOURCE Q 6 mL (manufactured by GE Healthcare Life Sciences), and eluted with an NaCl concentration gradient. The eluate was concentrated using Amicon Ultra-15 10 kDa, thereafter applied to a HiLoad 26/600 Superdex 200 pg (manufactured by GE Healthcare Life Sciences) gel filtration column equilibrated with buffer C (10 mM potassium phosphate buffer pH 7.4, 0.5M NaCl, 400 μM sodium benzoate, 20 μM FAD), and the DAAO protein dimer fraction was recovered. The recovered DAAO protein was replaced (sic) with buffer D (10 mM trisodium citrate, 20 μM FAD, 400 μM sodium benzoate) using Amicon Ultra-15 10 kDa, concentrated to 10 mg/mL and cryopreserved at −80° C.

Broadly, the IC50 is the concentration that inhibits the measured activity by half. In the case of `Cc1ccc(CCc2cc(O)c(=O)[nH]n2)cc1` [Example 13], the IC50 in assay [1] stood at 14 nM; in assay [2] it was 6.1 nM.
For `O=c1[nH]nc(CCc2ccc(-c3ccccc3)cc2)cc1O` [Example 15] the same measures were 16 nM and 1.2 nM.
`Cc1cccc(CCc2cc(O)c(=O)[nH]n2)c1` [Example 20]: the half-inhibitory concentration (IC50) in assay [1] was determined as 4.6 nM; in assay [2], 2.5 nM.
For `O=c1[nH]nc(CCc2ccc(F)cc2F)cc1O` [Example 21], in that order: 5.5 nM and 2.2 nM.
For `Cc1ccccc1CCc1cc(O)c(=O)[nH]n1` [Example 22] the same measures were 8.4 nM and 3.3 nM.
`CC(C)(C)c1ccc(CCc2cc(O)c(=O)[nH]n2)cc1` [Example 25]: the concentration for half-maximal inhibition (IC50) in assay [1] turned out to be 18 nM; in assay [2], 6.6 nM.
For `COCCCc1cc(O)c(=O)[nH]n1` [Example 26], the concentration for half-maximal inhibition (IC50) in assay [2] is 8.1 nM.
With `O=c1[nH]nc(CCc2ccc(OC(F)(F)F)cc2)cc1O` [Example 28], the concentration for half-maximal inhibition (IC50) in assay [1] amounted to 18 nM; in assay [2], 8.1 nM.
As for `CCCCc1cc(O)c(=O)[nH]n1` [Example 29], the IC50 was found to be 13 nM in assay [1] and 6.9 nM in assay [2].
For `Cc1cc(C)cc(CCc2cc(O)c(=O)[nH]n2)c1` [Example 40] the same measures were 9.8 nM and 4.7 nM.
For `COc1ccc(SCc2cc(=O)c(O)n[nH]2)cc1` [Example 47] the same measures were 12 nM and 5.2 nM.
Turning to `O=c1[nH]nc(CCCCc2ccccc2)cc1O` [Example 52], the IC50 in assay [1] worked out at 11 nM; in assay [2], 2.5 nM.
For `O=c1[nH]nc(CCc2cccc3ccccc23)cc1O` [Example 56] the same measures were 8.8 nM and 2.3 nM.
Turning to `O=c1[nH]cc(CCC2CCCCC2)cc1O` [Example 58], the 50% inhibitory concentration (IC50) in assay [2] is 44 nM.
As for `O=c1cc(COc2ccc(F)cc2)[nH]nc1O` [Example 231], the half-inhibitory concentration (IC50) in assay [1] came to 13 nM; in assay [2], 2.9 nM.
For `O=c1cc(COc2cccc(F)c2)[nH]nc1O` [Example 232] the same measures were 13 nM and 2.3 nM.
